According to patent publication US9540361B2, “N-substituted azetidine derivatives” (Merck Sharp & Dohme B.V., priority 2010, dated 2017):
Where a name gives a salt, the structure may show the parent alone. Marks after values point to notes of the source that are not given here.

Key:
[1] = molecular target: T1, estrogen receptor alpha (Homo sapiens, UniProt P03372); test: ERα downregulation assay in T47D breast cancer cells (ERα ELISA); format: cell-based; conditions: downregulation of ERα relative to fulvestrant (100%), 1E-5 M, 24 hours, negative = upregulation
T1 construct: endogenous in cells; host or cells: T47D human breast cancer cells (ATCC)
T1 sequence (P03372 1-595): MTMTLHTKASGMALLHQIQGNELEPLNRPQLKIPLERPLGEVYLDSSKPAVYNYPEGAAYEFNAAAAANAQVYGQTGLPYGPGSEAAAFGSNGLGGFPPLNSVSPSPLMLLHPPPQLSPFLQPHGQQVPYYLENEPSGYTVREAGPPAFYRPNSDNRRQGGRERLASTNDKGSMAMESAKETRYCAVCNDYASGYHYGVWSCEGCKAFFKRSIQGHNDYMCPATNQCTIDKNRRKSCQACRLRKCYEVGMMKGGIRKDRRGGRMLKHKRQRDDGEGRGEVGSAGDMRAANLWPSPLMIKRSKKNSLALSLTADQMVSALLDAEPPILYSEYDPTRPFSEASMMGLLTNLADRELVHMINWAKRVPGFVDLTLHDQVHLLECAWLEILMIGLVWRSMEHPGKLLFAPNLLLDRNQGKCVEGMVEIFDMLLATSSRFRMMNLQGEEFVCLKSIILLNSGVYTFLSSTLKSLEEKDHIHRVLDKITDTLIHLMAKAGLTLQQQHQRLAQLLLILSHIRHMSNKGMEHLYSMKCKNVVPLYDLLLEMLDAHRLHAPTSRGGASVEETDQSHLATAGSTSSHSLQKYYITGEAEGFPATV
Source text: More specifically, this in vitro bioassay is used to determine the efficacy (fraction of maximal response) of the compound by comparing the data for this compound with those of the reference compound ICI 182,780 (fulvestrant) in the same test (downregulation of fulvestrant is 100% by definition).
A more detailed description of the method used is as follows.
Cell culture. The human epithelial breast cancer cell line T47D (origin: ATCC) was routinely maintained in a 1:1 mixture of Ham's F12 medium and Dulbecco's Modified Eagle Medium (Gibco) enriched with 5% fetal calf serum (Hyclone), 10 mM HEPES pH 7.5 and 100 μg/ml penicillin-streptomycin solution. Cells were grown in 80 cm2 culture flasks (Nunc, Roskilde, Denmark) and kept in an atmosphere of 5% CO2-95% air at 37 degrees Celsius. Cells were subcultured when they reached about 80-90% confluence, resulting in one passage a week. Subculturing includes detaching the cells using Cell Dissociation Buffer [Sigma] and subsequent inoculation at 1:5 or 1:10 in a new Roux flask (175 cc) and\or plating out in Nunclon™ Surface 96 wells microplates. The culture medium needs to be refreshed on day three or four of the incubation, if applicable.
Determination of ERα protein levels: T47D cells in the microplates are incubated with 1E-5 M test compound for 24 hours. The supernatant in all wells is carefully aspirated. Cells are lysed on the microplate and cell lysates are probed for ERα content using an ERα ELISA assay kit (Active Motif).

[2] = molecular target: T2, human estrogen receptor α (hERα) (Homo sapiens, UniProt P03372); test: antagonistic activity in CHO cells co-transfected with hERα, rat oxytocin promoter and luciferase reporter gene; format: cell-based; conditions: antagonism of 17β-estradiol-induced transactivation, CHO-hERα-RO-LUC; read-out: ERα pIC50 (converted)
T2 sequence (P03372 1-595): T1 sequence (P03372 1-595)
Experimental: The antagonistic activity of compounds on the estrogen receptors was determined in an in vitro bioassay with recombinant Chinese Hamster Ovary (CHO) cells stably co-transfected with the human estrogen receptor α (hERα), the rat oxytocin promoter (RO) and the luciferase reporter gene (LUC). […] The antagonistic efficacy, i.e. the amount of maximal inhibition of the 17β-estradiol activated receptor by a compound, is expressed as fraction relative to the maximal inhibition as induced by the standard anti-estrogen ICI 164,384 (efficacy test compound=(maximal inhibition test compound/maximal inhibition ICI 164,384)). A more detailed description of the methodology can be found in De Gooyer et al., Steroids, 68 (2003) 21-30.

| DR (%) [1] | IC50 [2] [nM] | Structure (SMILES) |
| --- | --- | --- |
| −5 ^(d) % | 0.501 | CCCN1CC(Oc2ccc(C(=C(CC)c3ccccc3)c3ccc(O)cc3)cc2)C1 (mixture of isomers) [compound 6v, (E/Z)-4-(2-phenyl-1-(4-(1-propylazetidin-3-yloxy)phenyl)but-1-enyl)phenol 2,-2,2-trifluoroacetate] |
| 63% | 7.94 | CCCN1CC(Oc2ccc(C(=C(Cl)c3ccccc3)c3ccccc3)cc2)C1 (mixture of isomers) [compound 6x, (E/Z)-3-(4-(2-chloro-1,2-diphenylvinyl)phenoxy)-1-propylazetidine 2,2,2-trifluoroacetate] |
| 100% | 7.94 | CCCN1CC(Oc2ccc(C(=O)c3c(-c4cccn4C)noc3-c3ccc(O)cc3)cc2)C1.Cl [7al, (5-(4-hydroxyphenyl)-3-(1-methyl-1H-pyrrol-2-yl)isoxazol-4-yl)(4-(1-propylazetidin-3-yloxy)phenyl)methanone hydrochloride] |
| 7 ^(c) % | 0.251 | CCCN1CC(Oc2ccc(Oc3c(-c4ccc(O)cc4)sc4cc(O)ccc34)cc2)C1.O=C(O)C(F)(F)F [compound 6c, 2-(4-hydroxyphenyl)-3-(4-(1-propylazetidin-3-yloxy)phenoxy)benzo[b]thiophen-6-ol 2,2,2-trifluoroacetate] |
| 62% | 3.98 | CCCN1CC(Oc2ccc(C(=O)c3c(-c4ccc(O)cc4)noc3-c3ccccc3Cl)cc2)C1 [compound 6n, (5-(2-chlorophenyl)-3-(4-hydroxyphenyl)isoxazol-4-yl)(4-(1-propylazetidin-3-yloxy)phenyl)methanone] |
| 75% | 25.1 | CCCN1CC(Oc2ccc([C@H]3c4ccc(OC)cc4OC(C)(C)[C@@H]3c3ccccc3)cc2)C1.O=C(O)C(F)(F)F [compound 6o, 3-(4-((3S,4S)-7-methoxy-2,2-dimethyl-3-phenylchroman-4-yl)phenoxy)-1-propylazetidine 2,2,2-trifluoroacetate] |
| 58% | 3.98 | CCCN1CC(Oc2ccc([C@H]3c4ccc(O)cc4OC(C)(C)[C@@H]3c3ccccc3)cc2)C1.O=C(O)C(F)(F)F [compound 6p, (3S,4S)-2,2-dimethyl-3-phenyl-4-(4-(1-propylazetidin-3-yloxy)phenyl)chroman-7-ol 2,2,2-trifluoroacetate] |
| 86% | 0.398 | CCCN1CC(Oc2ccc(-c3c(-c4c(C)cccc4Cl)noc3-c3ccc(O)cc3)cc2)C1.O=C(O)C(F)(F)F [compound 7ab, 4-(3-(2-chloro-6-methylphenyl)-4-(4-(1-propylazetidin-3-yloxy)phenyl)isoxazol-5-yl)phenol 2,2,2-trifluoroacetate] |
| 94% | 1.58 | CCCN1CC(Oc2ccc(-c3c(-c4cccc(C)c4C)noc3-c3ccc(O)cc3)cc2)C1.O=C(O)C(F)(F)F [compound 7ac, 4-(3-(2,3-dimethylphenyl)-4-(4-(1-propylazetidin-3-yloxy)phenyl)isoxazol-5-yl)phenol 2,2,2-trifluoroacetate] |
| 92% | 1 | CCCN1CC(Oc2ccc(-c3c(-c4ccccc4CC)noc3-c3ccc(O)cc3)cc2)C1.O=C(O)C(F)(F)F [compound 7ad, 4-(3-(2-ethylphenyl)-4-(4-(1-propylazetidin-3-yloxy)phenyl)isoxazol-5-yl)-phenol 2,2,2-trifluoroacetate] |
| 99% | 12.6 | CCCN1CC(Oc2ccc(-c3c(-c4snnc4C)noc3-c3ccc(O)cc3)cc2)C1.Cl [compound 7ae, 4-(3-(4-methyl-1,2,3-thiadiazol-5-yl)-4-(4-(1-propylazetidin-3-yloxy)phenyl)isoxazol-5-yl)phenol hydrochloride] |
| 92% | 3.16 | CCCN1CC(Oc2ccc(-c3c(-c4c(C)noc4C)noc3-c3ccc(O)cc3)cc2)C1.Cl [compound 7af, 4-(3′,5′-dimethyl-4-(4-(1-propylazetidin-3-yloxy)phenyl)-3,4′-biisoxazol-5-yl)-phenol hydrochloride] |
| 96% | 7.94 | CCCN1CC(Oc2ccc(C(=O)c3c(-c4ccccc4)noc3-c3ccc(O)cc3)cc2)C1.Cl [compound 7ai, (5-(4-hydroxyphenyl)-3-phenylisoxazol-4-yl)(4-(1-propylazetidin-3-yloxy)-phenyl)methanone hydrochloride] |
| 100% | 3.16 | CCCN1CC(Oc2ccc(C(=O)c3c(-c4ccccc4C)noc3-c3ccc(O)cc3)cc2)C1.Cl [compound 7aj, (5-(4-hydroxyphenyl)-3-o-tolylisoxazol-4-yl)(4-(1-propylazetidin-3-yloxy)-phenyl)methanone hydrochloride] |
| 93% | 25.1 | CCCN1CC(Oc2ccc(C(=O)c3c(-c4ncccc4C)noc3-c3ccc(O)cc3)cc2)C1.Cl [compound 7am, (5-(4-hydroxyphenyl)-3-(3-methylpyridin-2-yl)isoxazol-4-yl)(4-(1-propylazetidin-3-yloxy)phenyl)methanone hydrochloride] |
| 98% | 2 | CCCN1CC(Oc2ccc(C(=O)c3c(-c4sccc4C)noc3-c3ccc(O)cc3)cc2)C1.Cl [compound 7an, (5-(4-hydroxyphenyl)-3-(3-methylthiophen-2-yl)isoxazol-4-yl)(4-(1-propylazetidin-3-yloxy)phenyl)methanone hydrochloride] |
| 80% | 25.1 | CCCN1CC(Oc2ccc(C(=O)c3c(-c4ccccc4Cl)noc3-c3ccccc3)cc2)C1 [compound 7ao, (3-(2-chlorophenyl)-5-phenyl)isoxazol-4-yl)(4-(1-propylazetidin-3-yloxy)-phenyl)methanone hydrochloride] |
| 90% | 2 | CCCN1CC(Oc2ccc(C(=O)c3c(-c4ccccc4Cl)noc3-c3cccc(O)c3)cc2)C1.Cl [compound 7ap, (3-(2-chlorophenyl)-5-(3-hydroxyphenyl)isoxazol-4-yl)(4-(1-propylazetidin-3-yloxy)phenyl)methanone hydrochloride] |
| 78% | 25.1 | CCCN1CC(Oc2ccc(C(=O)c3c(-c4ccccc4Cl)noc3-c3cc[nH]c3)cc2)C1.O=C(O)C(F)(F)F [compound 7aq, (3-(2-chlorophenyl)-5-(1H-pyrrol-3-yl)isoxazol-4-yl)(4-(1-propylazetidin-3-yl-oxy)phenyl)methanone 2,2,2-trifluoroacetate] |
| 82% | 20 | CCCN1CC(Oc2ccc(C(=O)c3c(-c4ccccc4Cl)noc3-c3ccc(N)cc3)cc2)C1.O=C(O)C(F)(F)F [compound 7ar, (5-(4-aminophenyl)-3-(2-chlorophenyl)isoxazol-4-yl)(4-(1-propylazetidin-3-yl-oxy)phenyl)methanone 2,2,2-trifluoroacetate] |
| 55% | 39.8 | CCCN1CC(Oc2ccc(C(=O)c3c(-c4ccccc4Cl)noc3-c3cccc4[nH]ncc34)cc2)C1.O=C(O)C(F)(F)F [compound 7as, (3-(2-chlorophenyl)-5-(1H-indazol-4-yl)isoxazol-4-yl)(4-(1-propylazetidin-3-yl-oxy)phenyl)methanone 2,2,2-trifluoroacetate] |
| 101% | 1.58 | CCCN1CC(Oc2ccc(C(=O)c3c(-c4ccccc4Cl)noc3-c3ccc(O)cc3)cc2F)C1.Cl [compound 7at, (3-(2-chlorophenyl)-5-(4-hydroxyphenyl)isoxazol-4-yl)(3-fluoro-4-(1-propylazetidin-3-yloxy)phenyl)methanone hydrochloride] |
